Measurements from patent US20210046139A1, “VEGETATION WATERS AND USES THEREOF” (FATTORIA LA VIALLA DI GIANNI, ANTONIO E BANDINO LO FRANCO - …, priority 2018, published 2021).

Columns and labels:
[1] = tested on: STZ diabetic rats; assay: Eye examination and cataract classification; type: in vivo, Sprague-Dawley rats
From the text: A well-established model of streptozotocin (STZ)-induced diabetes in rats was used. Streptozotocin is a glucosamine derivative of nitrosurea which selectively destroys the β cells of the pancreatic islets and causes the development of diabetes with hyperglycemia and glycosuria. The model shares a series of characteristics with human diabetic complications at both a functional level and a biochemical level, such as, for example, a reduced nervous conduction, loss of small-diameter sensory nerve fibers in the skin, reduction in Na+ and K+-ATPase activity and early alterations of the thermal and mechanical nociceptive thresholds. In this study, diabetes was induced in 24 rats with a single intraperitoneal injection of 60 mg/kg of STZ dissolved in a sodium citrate buffer (pH 4.5). 24 rats injected only with the vehicle were used as non-diabetic controls. Hyperglycemia was confirmed by measuring glycosuria 72 hours after the injection of STZ using Keto-Diabur strips (KD-5000; Roche Diagnostics Spa, Italy). Only the animals with glycosuria >5% were classified as diabetic and included in the study. […] The animals were then randomized to receive the concentrate of the invention at an HT equivalent dose of 50 mg/kg/day or 50 mg/kg/day of pure HT in drinking water, according to the following treatment groups: The opacity of the eyes and of the crystalline lenses was examined every week starting from the seventh/eighth week after the induction of diabetes, the period in which, in the STZ diabetic model, cataracts manifest themselves. Cataract severity was classified using a validated semi-quantitative scale. In particular, the following assessment scheme and the following scores were used: [table] The opacity index was calculated to quantitatively assess the degree of opacity of the crystalline lens by means of the following formula: [formula]

[2] = tested on: STZ diabetic rats; assay: Thiobarbituric acid reactive substances (TBARS) in plasma and kidney; type: in vivo, Sprague-Dawley rats; conditions: 50 mg/kg/day, 5 weeks, mean ± S.E.
From the text: A well-established model of streptozotocin (STZ)-induced diabetes in rats was used. Streptozotocin is a glucosamine derivative of nitrosurea which selectively destroys the β cells of the pancreatic islets and causes the development of diabetes with hyperglycemia and glycosuria. The model shares a series of characteristics with human diabetic complications at both a functional level and a biochemical level, such as, for example, a reduced nervous conduction, loss of small-diameter sensory nerve fibers in the skin, reduction in Na+ and K+-ATPase activity and early alterations of the thermal and mechanical nociceptive thresholds. In this study, diabetes was induced in 24 rats with a single intraperitoneal injection of 60 mg/kg of STZ dissolved in a sodium citrate buffer (pH 4.5). 24 rats injected only with the vehicle were used as non-diabetic controls. Hyperglycemia was confirmed by measuring glycosuria 72 hours after the injection of STZ using Keto-Diabur strips (KD-5000; Roche Diagnostics Spa, Italy). Only the animals with glycosuria >5% were classified as diabetic and included in the study. […] The levels of TBARS were determined as an indicator of the production of reactive oxygen species. […] The upper phase was measured using fluorimetry, (Infinite M200; Tecan, Milan, Italy) at an excitation wavelength of 532 nm and emission wavelength of 553 nm. […]

Structure (SMILES): OCCc1ccc(O)c(O)c1 [HT, hydroxytyrosol]
- diabetic rats in the fourth cataract phase ([1]; end of the fifth week, untreated 67%): 30%
- eyes with cataracts at stage 0 ([1]; end of the treatments, untreated none): 3 eyes
- opacity index ([1]; end of treatment, untreated 5.3): 2.0
- PLASMA TBARS ([2]; STZ diabetic rats): 12.1 ± 1.2 nmol/mL
- PLASMA TBARS ([2]; non-diabetic control rats (CTRL)): 4.3 ± 0.5 nmol/mL
